Laboratory results from patent publication US6833383B2, “Methods for treating patients suffering from drug dependencies which lead to plasma melatonin deficiencies” (Neurim Pharmaceuticals (1991) Ltd., priority 1995, dated 2004).

Columns and labels:
Benzodiazepine receptors = assay: 3H-flunitrazepam and 3H-RO 15-1788 binding to crude synaptosomal pellets of brains of rats treated for 21 days; format: in vivo, rat
Protocol: (§1) 20 male rats, maintained on a daily 14 hour light/10 hour darkness schedule, were divided into 4 groups, each consisting of 5 members:
(§2) Group 1 (the control group): rats were injected daily with 200 μl saline intraperitoneally for 21 days and were allowed to drink tap water.
(§3) They also were provided with regular tap water.
(§4) Group 3 (the melatonin group): rats were injected daily with 200 μl saline intraperitoneally. Their only available drinking water contained 0.4% by weight melatonin.
(§5) Each group was allowed food and water ad libitum. After 21 days the treatment was stopped. The animals were decapitated between 6:00 and 7:00 p.m. the next day, their brains were rapidly removed and crude synaptosomal pellets were prepared, and melatonin receptors were assessed using 2-^125I-melatonin, as described by Laudon, M., and N. Zisapel, FEBS Lett. 197:9 (1986). Benzodiazepine receptors were assessed by measuring the binding of radioactive benzodiazepine receptor probes ^3H-flunitrazepam (^3H-FNZ) and ^3H-RO 15-1788 as described by Amiri, Z. et al. Brain Res. 553:155 (1991). Binding parameters were calculated from the equilibrium binding data. […] Binding parameters of the various groups were compared by analysis of variance followed by Student-Newman-Keul's test for multiple comparison. Differences were considered significant if P<0.05.

[1] = urinary 6-sulfatoxymelatonin in benzodiazepine-dependent patient after melatonin therapy; format: in vivo, human; conditions: for Urinary 6-sulfatoxymelatonin after treatment: 2 weeks after stopping 1 mg controlled release melatonin daily
Protocol: (§6) The quality of sleep was assessed by an actigraph tracing which automatically monitors the bedtime sleep-wake pattern through a small device attached to the hand. […] Urine was collected every three hours for 36 hours and assayed for the diurnal secretion of […] melatonin.
(§7) Oral administration of a controlled release melatonin formulation in the form of tablets containing 1 mg melatonin (Neurim Pharmaceuticals, Israel) (made in accordance with the procedures set forth in example 1 for tablet SR-A) was initiated in order to correct for the deficiency and distortion of the melatonin rhythm. One tablet was administered daily at 8:30 p.m. The patient was asked to gradually reduce the number of benzodiazepine tablets taken each night.
(§8) The treatment was stopped and 2 weeks afterwards the patient's urine was collected again every three hours over a 36 hour period and assayed for 6-sulfatoxymelatonin. […] A three month follow-up confirmed that the patient maintained their quality of sleep and hardly suffered from headaches. After 6 months without treatment the patient's sleep quality began to deteriorate and melatonin therapy was resumed. The therapy restored their sleep quality and the patient continues to take 3 mg melatonin daily.

[2] = long term melatonin in two insomnia patients dependent upon flunitrazepam; format: in vivo, human
Protocol: Two volunteers, […], a person, and […], a person, had each suffered for a number of years from insomnia and/or frequent awakenings during the night accompanied by difficulty in falling asleep again. […] Both patients had been taking 1-2 mg of flunitrazepam orally prior to retiring each evening.
Each patient was weaned off of the flunitrazepam via gradual reduction and simultaneous administration of melatonin over a two month period. During this time, each patient received 2 mg melatonin in controlled release form daily. Since the end of that two month period, each patient has been taking 2 mg oral controlled release melatonin for almost two years.
[…] Each patient also reported reduced fatigue during the daytime within several days after the beginning of the weaning period.

[3] = case study: withdrawal from benzodiazepine tolerance and sleep in a patient; format: in vivo, human
Source text: This example illustrates the action of melatonin in facilitating rapid withdrawal from benzodiazepine tolerance. A person, married with two children, had been suffering from sleep onset insomnia for 10 years, accompanied by frequent and severe migraine attacks. A thorough neurological assessment was negative. Psychiatric or other organic problems also were ruled out.
The patient had been treated with benzodiazepines, tricyclic antidepressants and neuroleptic drugs, as well as biofeedback and relaxation methods with no apparent relief throughout the 10 year period. For the last year, they had been taking 4-8 mg Lorazepam every night, taking a 0.5 mg tablet every half hour or hour throughout the night. This led to difficulties when the patient arose in the morning; they would feel heavily sedated and had problems functioning at work, especially when under pressure. They began to feel that they were losing their memory and ability to concentrate.
as §6, §7, §8

melatonin receptors = assay: 2-125I-melatonin binding to crude synaptosomal pellets of brains of rats treated for 21 days; format: in vivo, rat; conditions: 21 days treatment
Protocol: as §1, §2, §3, §4, §5

[4] = cerebral cortex, 21 days treatment
[5] = 2 mg controlled release melatonin daily, patients
[6] = 1 mg controlled release melatonin tablet daily

## CN1C(=O)CN=C(c2ccccc2)c2cc(Cl)ccc21 [diazepam]
Benzodiazepine receptors; [4]
  effect on RO 15-1788 and flunitrazepam binding sites: did not significantly affect
Benzodiazepine receptors; cerebral cortex, diazepam given together with melatonin
  effect on the melatonin-mediated decrease in specific binding: prevented

## COc1ccc2[nH]cc(CCNC(C)=O)c2c1 [melatonin]
[1]; 2 weeks after treatment was stopped, urine every three hours over 36 hours
  urinary 6-sulfatoxymelatonin, change after therapy: increase in amount and a clear nocturnal peak
[1]; time 3.00
  Urinary 6-sulfatoxymelatonin after treatment: 0.74 µg/h
[1]; time 6.00
  Urinary 6-sulfatoxymelatonin after treatment: 0.36 µg/h
[1]; time 9.00
  Urinary 6-sulfatoxymelatonin after treatment: 0.21 µg/h
[1]; time 12.00
  Urinary 6-sulfatoxymelatonin after treatment: 0.01 µg/h
[1]; time 15.00 (first)
  Urinary 6-sulfatoxymelatonin after treatment: 0.11 µg/h
[1]; time 15.00 (second)
  Urinary 6-sulfatoxymelatonin after treatment: 0.04 µg/h
[1]; time 18.00
  Urinary 6-sulfatoxymelatonin after treatment: 0.45 µg/h
[1]; time 21.00
  Urinary 6-sulfatoxymelatonin after treatment: 0.11 µg/h
[1]; time 24.00
  Urinary 6-sulfatoxymelatonin after treatment: 1.24 µg/h
Benzodiazepine receptors; [4]
  reduction in specific binding of tritiated RO 15-1788 compared with the control group: 20%
  reduction in specific binding of tritiated flunitrazepam compared with the control group: 20%
Benzodiazepine receptors; medulla-pons, 21 days treatment
  maximal binding (Bmax) of the RO-15-1788 binding sites: significantly increased
[2]; [5]
  sleep inducement (subjective report): good
  sleep quality (subjective report): substantial improvement
[2]; 2 mg oral controlled release melatonin
  residual tiredness in the morning or hangover feeling: has not caused any
[2]; 2 mg oral controlled release melatonin for almost two years
  side effects reported: No side effects
[2]; within several days after the beginning of the weaning period
  fatigue during the daytime: reduced
[3]; [6]
  headaches (patient's report): subsided gradually
  insomnia (patient's claim): improved remarkably
[3]; 1 mg controlled release melatonin tablet daily at 8:30 p.m., patient on 4-8 mg Lorazepam nightly
  time until the patient stopped using the benzodiazepine hypnotics altogether: ≤ 2 days
[3]; after 3 weeks of melatonin treatment
  sleep pattern, repeated actigraph tracing: marked improvement
[3]; resumed after 6 months without treatment
  sleep quality after melatonin therapy was resumed: restored
Melatonin receptors
  binding of melatonin compared with the control group: no difference
